For one assay, the system named is BxPC-3. As to the kind of experiment: Cell growth inhibition assay (Cell Titer Glo), BxPC-3. It is filed as cell-based. The note with it: Homo sapiens, 72 h; single agent; BxPC-3, KRAS WT; 3 days. The protocol:
(§1) BxPC-3, HuP-T4, PL45, Panc-02-03, Mia-PaCa, HPAF-II, SW1990, Panc-08-13, Capan-1, AsPC-1, Capan-2, HPAC, YAPC and Panc-1 lines were used in the study. BxPC-3, Mia-PaCa, HPAF-11, SW1990, AsPC-1, Capan-2 and YAPC were cultured in RPMI 1640 medium (cat#72400 047, Invitrogen) containing 10% fetal bovine serum (FBS) (cat#SH30071.03, Hyclone). Capan-1 and HuP-T4 were cultured in RPMI 1640 medium containing 20% FBS. PL45 and PANC-1 lines were cultured in DMEM (ATCC 30-2002) containing 10% FBS. Panc-02-03 and Panc-08-13 were cultured in RPMI 1640 medium containing 15% fetal bovine serum and ITSX (51500-056, Gibco). HPAC was cultured in RPMI 1640 medium containing 5% FBS, ITSX, 40 ng/ml Hydrocortism, and 10 ng/ml EGF (85570C-1MG, SAFC Biosciences).
(§2) All cells were cultured for a minimum of 72 hours prior to cell plating. […] ATP levels were determined by adding Cell Titer Glo® (Promega) according to the manufacturer's protocol. Briefly, Cell Titer Glo® was added to each plate, incubated for 30 minutes and then the luminescent signal was read on the SpectraMax L plate reader with a 0.5 sec integration time.
(§3) Inhibition of cell growth was estimated after treatment with compound or combination of compounds for three days and the signal was compared to cells treated with vehicle (DMSO). Cell growth was calculated relative to vehicle (DMSO) treated control wells. […]

For a further assay, the system named is HuP-T4. As to the kind of experiment: Cell growth inhibition assay (Cell Titer Glo), HuP-T4. It is filed as cell-based. The note with it: Homo sapiens, 72 h; single agent; HuP-T4, KRAS G12V; 3 days. The protocol: as §1, §2, §3
(In general: In ATP-based viability assays light output follows the ATP content of the culture.)

A further assay relates to PL45. As to the kind of experiment: Cell growth inhibition assay (Cell Titer Glo), PL45. It is filed as cell-based. The note with it: Homo sapiens, 72 h; single agent; PL45, KRAS G12D; 3 days. The protocol:
as §1, §2, §3

In the next assay the test system is Panc-02-03. Description: Cell growth inhibition assay (Cell Titer Glo), Panc-02-03. It is filed as cell-based. The conditions noted are these: Homo sapiens, Panc 02.03, 72 h; single agent; Panc-02-03, KRAS G12D; 3 days. How it is done:
as §1, §2, §3

The subject of the next assay is Mia-PaCa. As to the kind of experiment: Cell growth inhibition assay (Cell Titer Glo), Mia-PaCa. It is filed as cell-based. The note with it: Homo sapiens, MIA PaCa-2, 72 h, single agent, KRAS G12C, 3 days. The protocol:
as §1, §2, §3

Another assay concerns HPAF-II. As to the kind of experiment: Cell growth inhibition assay (Cell Titer Glo), HPAF-II. It is filed as cell-based. The note with it: Homo sapiens, 72 h, single agent, KRAS G12D, 3 days. How it is done:
as §1, §2, §3

The test system of the next assay is SW1990. As to the kind of experiment: Cell growth inhibition assay (Cell Titer Glo), SW1990. It is filed as cell-based. The note with it: Homo sapiens, 72 h; single agent; SW1990, KRAS G12D; 3 days. The protocol:
as §1, §2, §3

The test system of a further assay is Panc-08-13. Description: Cell growth inhibition assay (Cell Titer Glo), Panc-08-13. It is filed as cell-based. The conditions noted are these: Homo sapiens, 72 h; single agent; Panc-08-13, KRAS G12D; 3 days. How it is done: as §1, §2, §3
A further assay deals with Capan-1. Description: Cell growth inhibition assay (Cell Titer Glo), Capan-1. It is filed as cell-based. The conditions noted are these: Homo sapiens, 72 h; single agent; Capan-1, KRAS G12V; 3 days. How it is done: as §1, §2, §3
In a further assay the test system is AsPC-1. As to the kind of experiment: Cell growth inhibition assay (Cell Titer Glo), AsPC-1. It is filed as cell-based. The note with it: Homo sapiens, ASPC1, 72 h; single agent; AsPC-1, KRAS G12D; 3 days. How it is done:
as §1, §2, §3

In the next assay the test system is Capan-2. Description: Cell growth inhibition assay (Cell Titer Glo), Capan-2. It is filed as cell-based. The note with it: Homo sapiens, 72 h; single agent; Capan-2, KRAS G12V; 3 days. How it is done:
as §1, §2, §3

Another assay concerns HPAC. As to the kind of experiment: Cell growth inhibition assay (Cell Titer Glo), HPAC. The conditions noted are these: Homo sapiens, 72 h, single agent, KRAS G12D, 3 days. It is filed as cell-based. How it is done:
as §1, §2, §3

A further assay concerns YAPC. As to the kind of experiment: Cell growth inhibition assay (Cell Titer Glo), YAPC. It is filed as cell-based. The note with it: Homo sapiens, 72 h, single agent, KRAS G12V, 3 days. How it is done: as §1, §2, §3
A further assay relates to Panc-1. Description: Cell growth inhibition assay (Cell Titer Glo), Panc-1. It is filed as cell-based, human. The note with it: for IC50: Homo sapiens, 72 h, single agent, Panc-1, KRAS G12D, 3 days; for sensitivity of cell growth (in words): KRAS mutant Panc-1 cells. How it is done:
as §1
(§4) All cells were cultured for a minimum of 72 hours prior to cell plating. Cells were assayed in a 96-well tissue culture plate (NUNC 136102) of RPMI medium containing 10% FBS for all cells at 1,000 cells per well. Approximately 24 hours after plating, cells were exposed to ten, three-fold serial dilutions of compound or the combination of the two agents at a constant molar to molar ratio of 1:1 Compound A to Compound B in RPMI media containing 10% FBS. Cells were incubated in the presence of compounds for 3 days. ATP levels were determined by adding Cell Titer Glo® (Promega) according to the manufacturer's protocol. Briefly, Cell Titer Glo® was added to each plate, incubated for 30 minutes and then the luminescent signal was read on the SpectraMax L plate reader with a 0.5 sec integration time.
as §3
(§5) Combination effects on potency were evaluated using Combination Index (CI) which was calculated with the back-interpolated IC50 values and the mutually non-exclusive equation derived by Chou and Talalay: CI=Da/IC50(a)+Db/IC50(b)+(Da×Db)/(IC50(a)×IC50(b)) […]
(§6) The combination effects on the response scale were quantified by Excess Over Highest Single Agent (EOHSA) based on the concept of nonlinear blending as described in detail by Liu et al, 2011. […] For single agent and combination treatments, cells were exposed to compounds at a fixed-dose-ratio, and dose response curves were fit to the experimental data and analyzed using regression models. At specified total dose levels of IC50 along the dose response curve, the dose combination (corresponding to IC50) was determined for making EOHSA statistical inferences. […]

Assay [1] has as its system KRAS mutant lines HPAF-11, SW1990, Panc-08-13 and Capan-1. Description: Cell growth inhibition assay, four KRAS mutant lines. It is filed as cell-based. The note with it: Homo sapiens; single agent; over HPAF-11, SW1990, Panc-08-13 and Capan-1. How it is done:
as §1, §4, §3, §5, §6

Assay [2] relates to KRAS mutant tumor lines, HuP-T4, PL45, Panc-02-03 and Mia-PaCa. The description is as above. It is filed as cell-based. The note with it: Homo sapiens; single agent; range over HuP-T4, PL45, Panc-02-03 and Mia-PaCa. The protocol:
as §1, §4, §3, §5, §6

A value given as a limit tells only on which side of the number the result lay.

What is called IC50 is the concentration that gives 50% inhibition. As to `CC(=O)Nc1cccc(-n2c(=O)n(C3CC3)c(=O)c3c(Nc4ccc(I)cc4F)n(C)c(=O)c(C)c32)c1` [Compound A, N-{3-[3-cyclopropyl-5-(2-fluoro-4-iodo-phenylamino)-6,8-dimethyl-2,4,7-trioxo-3,4,6,7-tetrahydro-2H-pyrido[4,3-d]pyrimidin-1-yl]phenyl}acetamide], the IC50 with BxPC-3 is 14 nM; with HuP-T4 it was 1 ± 1 nM; with PL45 it was 15 ± 4 nM; in the assay on Panc-02-03 it was 32 ± 13 nM; in the assay on Mia-PaCa, 59 ± 28 nM; with HPAF-II it was 59 ± 53 nM. Besides, the IC50 in the assay with SW1990 worked out at 62 ± 43 nM; in the assay with Panc-08-13, 67 ± 14 nM; with Capan-1, 193 ± 78 nM; in the assay with AsPC-1, 5 nM; in the assay on Capan-2 it was 10 ± 1 nM; in the assay with HPAC it was 21 ± 6 nM. The IC50 in the assay on YAPC is > 1000 nM; in the assay on Panc-1, > 1000 nM; in assay [1], 59 to 193 nM; in assay [2] it was 1 to 59 nM. Besides, in the assay on Panc-1, the “sensitivity of cell growth (in words)” value was “resistant”.

As for `Nc1ccn([C@@H]2O[C@H](CO)[C@@H](O)C2(F)F)c(=O)n1` [Compound B, 4-amino-1-(2-deoxy-2,2-difluoro-β-D-erythro-pentofuranosyl)pyrimidin-2(1H)-on 2′,2′-difluoro-2′-deoxycytidine], the IC50 in the assay on BxPC-3 was 8 nM; in the assay with HuP-T4 it was 7 ± 5 nM; with PL45 it was 13 ± 2 nM; in the assay on Panc-02-03, 88 ± 17 nM; with Mia-PaCa, 21 ± 1 nM; with HPAF-II, > 1000 nM. Further, the IC50 is ≥ 1000 nM with SW1990; > 1000 nM in the assay on Panc-08-13; > 1000 nM in the assay with Capan-1; > 1000 nM in the assay with AsPC-1; > 1000 nM in the assay on Capan-2; > 1000 nM in the assay on HPAC. Further, the 50% inhibitory concentration (IC50) with YAPC is 12 ± 8 nM; in the assay on Panc-1 it was > 1000 nM; in assay [1], > 1000 nM; in [2] it was 7 to 88 nM. In addition, the “sensitivity of cell growth (in words)” value in the assay on Panc-1 is on record as “resistant”.
